Measurements: patent publication US20230293404A1, “Compositions Comprising Natural Polymers and One or More (Bio)-Alkanediols” (Symrise AG, priority 2020, published 2023)

Key:
[1] = tested on: microbial load of natural polymers; experiment: Microbial load of mixtures of natural polymers with alkanediols (plating, CFU count); format: cell-based, bacteria
Experimental: The following tests were performed to show the influence of different alkanediols on the microbial load of natural polymers.
A selection of natural polymers as specified in Table 1 was systematically analyzed in combination with different 1,2-alkanediols and 2,3-alkanediols (0.5%). The polymers were chosen to be representative from different polymer classes:
A mixture of the natural polymer (concentration as recommended by supplier) with water and 1,2-alkanediol (0.5%) or 2,3-alkanediol (0.5%) or a mixture of 1,2-alkanediol and 2,3-alkanediol (0.5% final concentration) was prepared, as representative of a cold formulation preparation processes, and directly sampled for determination of microbial load. Additionally, the mixtures were stored at 40° C. and again sampled for microbial load after 2 days and 7 days.
The microbial load of the mixtures was determined by plating 1000 μl (or respective dilutions of the material) on an agar plate based on universal bacterial growth medium (Caseinpepton-Sojamehlpepton-Bouillon, Merck 1.05459+Agar No. 1, Oxoid LP0011). The plates were then incubated at 37° C. for 5 days and then photo documented. In parallel, bacterial colonies were counted (CFU—colony forming units per ml).

[2] = Maximum solubility of alkanediols in water (visual assessment); format: physicochemical; conditions: assessed at ambient temperature after 24 h storage at 5° C.; visual observation
Description: The water solubility of a substance is the saturation mass concentration of the substance in water at a given temperature. The determination of the solubility in water relates to essentially pure substances which are stable in water and not volatile.
For the determination of the maximum water solubility of an alkanediol, water and different concentrations of the respective alkanediol were blended by stirring. […] The determination of whether the alkanediol has dissolved in water is based entirely on visual observation.

[3] = Physical state of alkanediols and alkanediol mixtures at RTP; format: physicochemical; conditions: at RTP (room temperature, normal pressure); FIG. 3 and FIG. 4
Description: The term “liquid alkanediol” within the context of the present invention means an alkanediol component which is liquid at room or ambient temperature and under normal pressure, i.e. standard RTP conditions.
FIG. 3 is a photograph showing from left to right samples of the liquid 1,2-pentanediol, 1,2-hexanediol, 1,2-heptanediol, 2,3-heptanediol, 2,3-octanediol and 2,3-undecanediol in comparison to the solid 1,2-octanediol, 1,2-undecanediol, 1,2-nonanediol and the liquid 2,3-nonanediol. The first six alkanediols are liquid at RTP, whereas 1,2-octanediol, 1,2-nonanediol and 1,2-undecanediol are solid substances at RTP; 2,3-nonanediol is also liquid at RTP.
FIG. 4 is a representative photograph of samples of mixtures of 1,2-alkanediols with the respective 2,3-alkanediol. All mixtures are liquid. They are shown in the following order: 1,2-heptanediol (95%)+2,3-heptanediol (5%), 1,2-octanediol (95%)+2,3-octanediol (5%), and 1,2-nonanediol (95%)+2,3-nonanediol (5%).

[4] = Covathick (2009, cellulose 0.5%) in water + 0.5% 1,2-alkanediol, 2 days storage at 40° C.
[5] = Covathick (2009, cellulose 0.5%) in water + 0.5% 1,2-alkanediol, 7 days storage at 40° C.
[6] = Covathick (2009, cellulose 0.5%) in water + 0.5% 1,2-alkanediol, fresh
[7] = Genuvisco (CG-131, carrageenan 0.5%) in water + 0.5% 1,2-alkanediol, 2 days storage at 40° C.
[8] = Genuvisco (CG-131, carrageenan 0.5%) in water + 0.5% 1,2-alkanediol, 7 days storage at 40° C.
[9] = Genuvisco (CG-131, carrageenan 0.5%) in water + 0.5% 1,2-alkanediol, fresh
[10] = Nativacare (5600, corn starch 3%) in water + 0.5% 1,2-alkanediol, 2 days storage at 40° C.
[11] = Nativacare (5600, corn starch 3%) in water + 0.5% 1,2-alkanediol, 7 days storage at 40° C.
[12] = Nativacare (5600, corn starch 3%) in water + 0.5% 1,2-alkanediol, fresh
[13] = Polycos-N 75 (guar gum 0.5%) in water + 0.5% 1,2-alkanediol, 2 days storage at 40° C.
[14] = Polycos-N 75 (guar gum 0.5%) in water + 0.5% 1,2-alkanediol, 7 days storage at 40° C.
[15] = Polycos-N 75 (guar gum 0.5%) in water + 0.5% 1,2-alkanediol, fresh
[16] = Table 4: Covathick (0.5%) in water + alkanediol or mixture, 0.5% total, 2 days storage at 40° C.
[17] = Table 4: Covathick (0.5%) in water + alkanediol or mixture, 0.5% total, 7 days storage at 40° C.
[18] = Table 4: Covathick (0.5%) in water + alkanediol or mixture, 0.5% total, fresh
[19] = Table 4: PolyCos N-75 (0.5%) in water + alkanediol or mixture, 0.5% total, fresh
[20] = Xanthan Gum (Rheocare XGN 0.5%) in water + 0.5% 1,2-alkanediol, 2 days storage at 40° C.
[21] = Xanthan Gum (Rheocare XGN 0.5%) in water + 0.5% 1,2-alkanediol, fresh
[22] = Covathick (0.5%) in water + 0.5% 2,3-alkanediol, 2 days storage at 40° C.
[23] = Covathick (0.5%) in water + 0.5% 2,3-alkanediol, 7 days storage at 40° C.
[24] = Covathick (0.5%) in water + 0.5% 2,3-alkanediol, fresh
[25] = Genuvisco (0.5%) in water + 0.5% 2,3-alkanediol, 2 days storage at 40° C.
[26] = Genuvisco (0.5%) in water + 0.5% 2,3-alkanediol, 7 days storage at 40° C.
[27] = Genuvisco (0.5%) in water + 0.5% 2,3-alkanediol, fresh
[28] = Polycos-N 75 (0.5%) in water + 0.5% 2,3-alkanediol, fresh

CCCCCC(O)CO (stereo not drawn) [1,2-heptanediol]
Bacterial load (colony forming units) [1, 4]: 0 CFU per ml | Bacterial load (colony forming units) [1, 5]: 0 CFU per ml | Bacterial load (colony forming units) [1, 6]: 4 CFU per ml | Bacterial load (colony forming units) [1, 7]: 0 CFU per ml | Bacterial load (colony forming units) [1, 8]: 0 CFU per ml | Bacterial load (colony forming units) [1, 9]: 0 CFU per ml | Bacterial load (colony forming units) [1, 10]: 0 CFU per ml | Bacterial load (colony forming units) [1, 11]: 0 CFU per ml | Bacterial load (colony forming units) [1, 12]: 0 CFU per ml | Bacterial load (colony forming units) [1, 13]: 0 CFU per ml | Bacterial load (colony forming units) [1, 14]: 0 CFU per ml | Bacterial load (colony forming units) [1, 15]: 5 CFU per ml | Bacterial load (colony forming units) [1, 16]: 0 CFU per mL | Bacterial load (colony forming units) [1, 17]: 0 CFU per mL | Bacterial load (colony forming units) [1, 18]: 4 CFU per mL | Bacterial load (colony forming units) ([1]; Table 4: PolyCos N-75 (0.5%) in water + alkanediol or mixture, 0.5% total, 2 days storage at 40° C.): 0 CFU per mL | Bacterial load (colony forming units) ([1]; Table 4: PolyCos N-75 (0.5%) in water + alkanediol or mixture, 0.5% total, 7 days storage at 40° C.): 0 CFU per mL | Bacterial load (colony forming units) [1, 19]: 5 CFU per mL | Bacterial load (colony forming units) ([1]; Table 4: Xanthan Gum (0.5%) in water + alkanediol or mixture, 0.5% total, 2 days storage at 40° C.): 2 CFU per mL | Bacterial load (colony forming units) ([1]; Table 4: Xanthan Gum (0.5%) in water + alkanediol or mixture, 0.5% total, 7 days storage at 40° C.): 0 CFU per mL | Bacterial load (colony forming units) ([1]; Table 5: Covathick (0.5 %) in water + alkanediol or mixture, 0.5% total, 2 days storage at 40° C.): 0 CFU per mL | Bacterial load (colony forming units) ([1]; Table 5: Covathick (0.5 %) in water + alkanediol or mixture, 0.5% total, 7 days storage at 40° C.): 0 CFU per mL | Bacterial load (colony forming units) ([1]; Table 5: Covathick (0.5 %) in water + alkanediol or mixture, 0.5% total, fresh): 4 CFU per mL | Bacterial load (colony forming units) ([1]; Table 5: PolyCos N-75 (0.5 %) in water + alkanediol or mixture, 0.5% total, 2 days storage at 40° C.): 0 CFU per mL | Bacterial load (colony forming units) ([1]; Table 5: PolyCos N-75 (0.5 %) in water + alkanediol or mixture, 0.5% total, 7 days storage at 40° C.): 0 CFU per mL | Bacterial load (colony forming units) ([1]; Table 5: PolyCos N-75 (0.5 %) in water + alkanediol or mixture, 0.5% total, fresh): 5 CFU per mL | Bacterial load (colony forming units) ([1]; Table 5: Xanthan Gum (0.5 %) in water + alkanediol or mixture, 0.5% total, 2 days storage at 40° C.): 2 CFU per mL | Bacterial load (colony forming units) ([1]; Table 5: Xanthan Gum (0.5 %) in water + alkanediol or mixture, 0.5% total, 7 days storage at 40° C.): 0 CFU per mL | Bacterial load (colony forming units) [1, 20]: 2 CFU per ml | Bacterial load (colony forming units) ([1]; Xanthan Gum (Rheocare XGN 0.5%) in water + 0.5% 1,2-alkanediol, 7 days storage at 40° C.): 0 CFU per ml | Activity to stabilize natural polymer solutions for storage by removing their microbial load (in words) ([1]; compared to 1,2-pentanediol and 1,2-hexanediol, Table 2): superior activity | Maximum solubility in water [2]: 2.5 % by weight | Physical state [3]: liquid

CCCCC(O)CO (stereo not drawn) [1,2-hexanediol]
Bacterial load (colony forming units) [1, 4]: 0 CFU per ml | Bacterial load (colony forming units) [1, 5]: >13 CFU per ml | Bacterial load (colony forming units) [1, 6]: 3 CFU per ml | Bacterial load (colony forming units) [1, 8]: 0 CFU per ml | Bacterial load (colony forming units) [1, 9]: 3 CFU per ml | Bacterial load (colony forming units) [1, 10]: 0 CFU per ml | Bacterial load (colony forming units) [1, 11]: 0 CFU per ml | Bacterial load (colony forming units) [1, 12]: 1 CFU per ml | Bacterial load (colony forming units) [1, 13]: 19 CFU per ml | Bacterial load (colony forming units) [1, 14]: 2 CFU per ml | Bacterial load (colony forming units) [1, 15]: 9 CFU per ml | Bacterial load (colony forming units) [1, 20]: 1 CFU per ml | Bacterial load (colony forming units) [1, 21]: 7 CFU per ml | Maximum solubility in water [2]: 50 % by weight | Physical state [3]: liquid

CCCCCCCC(O)CO (stereo not drawn) [1,2-nonanediol]
Maximum solubility in water [2]: 0.1 % by weight | Physical state [3]: solid

CCCCCCC(O)CO (stereo not drawn) [1,2-octanediol]
Maximum solubility in water [2]: 0.5 % by weight | Physical state [3]: solid

CCCC(O)CO (stereo not drawn) [1,2-pentanediol]
Bacterial load (colony forming units) [1, 4]: >13 CFU per ml | Bacterial load (colony forming units) [1, 5]: 4 CFU per ml | Bacterial load (colony forming units) [1, 6]: 84 CFU per ml | Bacterial load (colony forming units) [1, 7]: 2800 CFU per ml | Bacterial load (colony forming units) [1, 8]: 0 CFU per ml | Bacterial load (colony forming units) [1, 9]: 35 CFU per ml | Bacterial load (colony forming units) [1, 10]: 27 CFU per ml | Bacterial load (colony forming units) [1, 11]: >1000 CFU per ml | Bacterial load (colony forming units) [1, 12]: 0 CFU per ml | Bacterial load (colony forming units) [1, 14]: 13 CFU per ml | Bacterial load (colony forming units) [1, 15]: 13 CFU per ml | Bacterial load (colony forming units) [1, 21]: >249 CFU per ml | Maximum solubility in water [2]: 50 % by weight | Physical state [3]: liquid

CCCCCCCCCC(O)CO (stereo not drawn) [1,2-undecanediol]
Physical state [3]: solid

CCCCC(O)C(C)O (stereo not drawn) [2,3-heptanediol]
Bacterial load (colony forming units) [1, 22]: 0 CFU per mL | Bacterial load (colony forming units) [1, 23]: 0 CFU per mL | Bacterial load (colony forming units) [1, 24]: 5 CFU per mL | Bacterial load (colony forming units) [1, 25]: 1 CFU per mL | Bacterial load (colony forming units) [1, 26]: 1 CFU per mL | Bacterial load (colony forming units) [1, 27]: 5 CFU per mL | Bacterial load (colony forming units) [1, 28]: 2 CFU per mL | Bacterial load (colony forming units) [1, 16]: 0 CFU per mL | Bacterial load (colony forming units) [1, 17]: 0 CFU per mL | Bacterial load (colony forming units) [1, 18]: 5 CFU per mL | Bacterial load (colony forming units) [1, 19]: 2 CFU per mL | Maximum solubility in water [2]: 3.6 % by weight | Physical state [3]: liquid

CCCCCCC(O)C(C)O (stereo not drawn) [2,3-nonanediol]
Maximum solubility in water [2]: 0.3 % by weight | Physical state [3]: liquid

CCCCCCCCC(O)C(C)O (stereo not drawn) [2,3-undecanediol]
Bacterial load (colony forming units) [1, 22]: 0 CFU per mL | Bacterial load (colony forming units) [1, 23]: 0 CFU per mL | Bacterial load (colony forming units) [1, 24]: 0 CFU per mL | Bacterial load (colony forming units) [1, 25]: 0 CFU per mL | Bacterial load (colony forming units) [1, 26]: 0 CFU per mL | Bacterial load (colony forming units) [1, 27]: 0 CFU per mL | Bacterial load (colony forming units) ([1]; Polycos-N 75 (0.5%) in water + 0.5% 2,3-alkanediol, 2 days storage at 40° C.): 0 CFU per mL | Bacterial load (colony forming units) ([1]; Polycos-N 75 (0.5%) in water + 0.5% 2,3-alkanediol, 7 days storage at 40° C.): 0 CFU per mL | Bacterial load (colony forming units) [1, 28]: 0 CFU per mL | Bacterial load (colony forming units) ([1]; Xanthan Gum (0.5%) in water + 0.5% 2,3-alkanediol, 2 days storage at 40° C.): 0 CFU per mL | Bacterial load (colony forming units) ([1]; Xanthan Gum (0.5%) in water + 0.5% 2,3-alkanediol, 7 days storage at 40° C.): 0 CFU per mL | Bacterial load (colony forming units) ([1]; Xanthan Gum (0.5%) in water + 0.5% 2,3-alkanediol, fresh): 0 CFU per mL | Effect on the microbial load of the natural polymer solutions (in words) ([1]; directly after preparation of the mixtures as well as after 7 days storage, Table 3): superior antimicrobial activity | Physical state [3]: liquid
